Test results reported in patent US8466127B2, “Pegylated and fatty acid grafted chitosan oligosaccharide, synthesis method and application for drug delivery system” (Zhejiang University, priority 2008, dated 2013).
Converted amounts (≈) assume the structure as drawn. Where two headings read alike, the source gives them in different places.

How the values were obtained:
hepatoma cell HepG2 = assay: MTT assay, mitomycin C preparations; assay type: cell-based; details: HepG2, 48 h, mitomycin C solution or mitomycin C-loaded micelle of the named carrier
Experimental: Cell survival rate was determined by MTT assay. […] After incubation for 48 h, 60 μL of MTT solution was added to each well followed by incubation for 4 h. After that, the supernatant was discarded, and the cells were washed twice with PBS solution, prior to adding 400 μL DMSO to each well to terminate the reaction. After the culture plates were given a horizontal vibration for 10 min, the absorbance at the wavelength of 570 nm was measured in ELSA meter, and the cell survival rate was calculated according to the following formula: Cell survival rate(%)=A570(sample)/A570(control)×100% Wherein, A570 (sample) is the absorbance of cells adding with free drug or drug-loaded micelle, A570 (control) is the absorbance of control cells.

[1] = test system: uterine cervix cancer cell Hela; assay: MTT assay, adriamycin preparation; assay type: cell-based; details: Homo sapiens, 48 h
Experimental: Subsequently, the solution was transferred into a volumetric flask to set the total volume to 50 mL with distilled water, and then 1 mg/mL micelle solution was obtained. […] After stirred at room temperature for 3 h, the solution was dialyzed for 24 h with distilled water in dialysis bag with the molecular weight of 3,500. Then the dialysis concentrate solution was centrifuged at 5000 rpm for 5 min to remove the dialyzed hydrophobic anticancer drugs.
Subsequently, the evaluation of antitumor efficacy was conducted. Specifically, the uterine cervix cancer cell Hela used as the model was cultured in 96-well culture plate. 100 μL cell culture solution containing 5×10^3 Hela cells was added to each well and cultured for 24 h in 37° C., 5% CO2 incubator. […] A repeated well of each above group was set. The cells were cultured in normal DMEM medium for 48. After 20 μL of 5 mg/mL methylthiazoletetrazolium (MTT) solution was added to each well, the cells was re-cultured in 37° C., 5% CO2 incubator for 4 h, and then the supernatant was discarded. By adding 150 μL dimethyl sulfoxide to each well, a multi-functional microplate reader was used to measure the absorbance, and then the cell inhibition ratio was calculated according to the following formula: Cell inhibition ratio(%)=(absorbance of control group−absorbance of experimental group)/absorbance of control group×100%

[2] = test system: breast carcinoma cell (MCF-7); assay: MTT assay, adriamycin preparation, sensitive cells; assay type: cell-based; details: Homo sapiens, MCF7, 48 h
Experimental: (§1) Specifically, the breast carcinoma cell (MCF-7) and its drug-resistant cell (MCF-7-adr) used as the model cells were cultured in 96-well culture plate. 100 μL culture solution containing 5×10^3 MCF-7 or MCF-7-adr cells was added to each well and cultured for 24 h in 37° C., 5% CO2 incubator. […] A repeated well of each above group was set. The cells were cultured in normal DMEM medium for 48. After 20 μL of 5 mg/mL methylthiazoletetrazolium (MTT) solution was added to each well, the cells was re-cultured in 37° C., 5% CO2 incubator for 4 h, and then the supernatant was discarded. By adding 150 μL dimethyl sulfoxide to each well, a multi-functional microplate reader was used to measure the absorbance, and then the cell inhibition ratio was calculated according to the following formula: Cell inhibition ratio %=(absorbance of control group−absorbance of experimental group)/absorbance of control group×100%

[3] = test system: drug-resistant cell (MCF-7-adr); assay: MTT assay, adriamycin preparation, drug-resistant cells; assay type: cell-based; details: Homo sapiens, NCI/ADR-RES, 48 h
Experimental: as §1

QGY tumor = assay: In vivo gene therapy, tumor inhibition; details: Nude mouse with QGY tumor, 2 mg/kg once, successive administration for 7 days
Experimental: PEDF was taken as the theoretical gene, and the drug-loaded graft micelle was prepared.

[4] = test system: human lung cancer cell A549; assay: MTT assay, paclitaxel and hydroxycamptothecin preparations; assay type: cell-based; details: A549, 48 h
Experimental: Specifically, the human lung cancer cell A549 used as the model was cultured in 96-well culture plate. 100 μL cell culture solution containing 5×10^3 A549 cells was added to each well and cultured for 24 h in 37° C., 5% CO2 incubator. […] A repeated well of each above group was set. The cells were cultured in normal DMEM medium for 48. After 20 μL of 5 mg/mL methylthiazoletetrazolium (MTT) solution was added to each well, the cells was re-cultured in 37° C., 5% CO2 incubator for 4 h, and then the supernatant was discarded. By adding 150 μL dimethyl sulfoxide to each well, a multi-functional microplate reader was used to measure the absorbance, and then the cell inhibition ratio was calculated according to the following formula: Cell inhibition ratio %=(absorbance of control group−absorbance of experimental group)/absorbance of control group×100%

[5] = test system: ovarian cancer cell SKOV-3; assay: MTT assay, paclitaxel preparation, sensitive cells; assay type: cell-based; details: Homo sapiens, SK-OV-3, 48 h
Experimental: as §1, with “ovarian cancer” for “breast carcinoma”, “SKOV-3” for “(MCF-7)”, “SKOV-3/ST30” for “(MCF-7-adr)”, “SKOV-3” for “MCF-7”, “SKOV-3/ST30” for “MCF-7-adr”

[6] = test system: drug-resistant cell SKOV-3/ST30; assay: MTT assay, paclitaxel preparation, drug-resistant cells; assay type: cell-based; details: Homo sapiens, SK-OV-3, 48 h
Experimental: as §1, with “ovarian cancer” for “breast carcinoma”, “SKOV-3” for “(MCF-7)”, “SKOV-3/ST30” for “(MCF-7-adr)”, “SKOV-3” for “MCF-7”, “SKOV-3/ST30” for “MCF-7-adr”

Q: `CO[C@@]12[C@H](COC(N)=O)C3=C(C(=O)C(C)=C(N)C3=O)N1C[C@@H]1N[C@@H]12` [Control example, mitomycin C] was tested. Which IC50 (hepatoma cell HepG2) did it give?
A: 1.97 µg/mL (≈ 5.89 µM)

Q: What does the source list for `COc1cccc2c1C(=O)c1c(O)c3c(c(O)c1C2=O)C[C@@](O)(C(=O)CO)C[C@@H]3O[C@H]1C[C@H](N)[C@H](O)[C@H](C)O1` [adriamycin solution, adriamycin]?
A: IC50 [1]: 1.7 µg/mL (≈ 3.13 µM); IC50 [2]: 0.48 µg/mL (≈ 0.883 µM); IC50 [3]: 24.8 µg/mL (≈ 45.6 µM); tumor inhibition ratio (positive control) (QGY tumor): 78.85%

Q: `CC[C@@]1(O)C(=O)OCc2c1cc1n(c2=O)Cc2cc3cc(O)ccc3nc2-1` [hydeoxycamptothecin injection, hydroxycamptothecin] was tested. Which IC50 [4] did it give?
A: 8.6 µg/mL (≈ 23.6 µM)

Q: For `CC(=O)O[C@H]1C(=O)[C@@]2(C)[C@H]([C@H](OC(=O)c3ccccc3)[C@]3(O)C[C@H](OC(=O)[C@H](O)[C@@H](NC(=O)c4ccccc4)c4ccccc4)C(C)=C1C3(C)C)[C@]1(OC(C)=O)CO[C@@H]1C[C@@H]2O` [taxol solution, paclitaxel], which IC50 ([4]; MTT, read-out: IC50) is on record?
A: 3.2 µg/mL (≈ 3.75 µM)

Q: And the IC50 [5]?
A: 0.45 ± 0.05 µg/mL (≈ 0.527 µM)

Q: What about the IC50 [6] of the same molecule?
A: 10.2 ± 0.23 µg/mL (≈ 12 µM)
